In the NIST ThermoML archive (doi:10.1021/acs.jced.5b00860):

Conditions: for surface tension liquid-gas: Maximal bubble pressure; for electrical conductivity / viscosity / mass density: 101.33 kPa, Liquid; for electrical conductivity: Alternating current cell with electrodes; for viscosity: Concentric cylinders viscometry; for mass density: Vibrating tube method

CCCCn1cc[n+](C)c1.O=C([O-])O [1-butyl-3-methylimidazolium hydrogen carbonate]
Conditions	electrical conductivity [S/m]	mass density [kg/m3]	surface tension liquid-gas [mN/m]	viscosity [mPa·s]
288.15 K	0.274	1164.1	34.9	122.9
293.15 K	0.322	1160.5	34.4	94.8
298.15 K	0.376	1157.08	34	73.73
303.15 K	0.439	1153.64	33.5	57.64
308.15 K	0.496	1150	33.1	45.33
313.15 K	0.557	1146.51	32.6	35.86
318.15 K	0.622	1142.95	32.2	28.85
323.15 K	0.689	1139.45	31.7	22.93
328.15 K	0.755	1136.1	31.2	18.54
333.15 K	0.823	1132.53	30.8	14.81
338.15 K	0.893	1128.92	30.4	11.88
343.15 K	0.963	1125.52	29.9	10.04

CCn1cc[n+](C)c1C.O=S(=O)([O-])O [1-ethyl-2,3-dimethylimidazolium hydrogen sulfate]
Conditions	electrical conductivity [S/m]	mass density [kg/m3]	surface tension liquid-gas [mN/m]	viscosity [mPa·s]
288.15 K	–	1261.94	50.4	375
293.15 K	–	1258.09	50.1	263.6
298.15 K	0.15	1254.43	49.8	186
303.15 K	0.193	1250.77	49.5	134.9
308.15 K	0.244	1247.08	49.3	98.41
313.15 K	0.308	1243.3	49	72.94
318.15 K	0.377	1239.59	48.7	53.72
323.15 K	0.458	1235.8	48.4	40.12
328.15 K	0.554	1232.2	48.1	30.2
333.15 K	0.665	1228.52	47.8	22.37
338.15 K	0.787	1224.82	47.5	17.96
343.15 K	0.925	1221.18	47.2	12.57

CCCCCn1cc[n+](C)c1C.O=S(=O)([O-])O [2,3-dimethyl-1-pentylimidazolium hydrogen sulfate]
Conditions	electrical conductivity [S/m]	mass density [kg/m3]	surface tension liquid-gas [mN/m]	viscosity [mPa·s]
288.15 K	–	1196.47	42.5	772.4
293.15 K	–	1193.23	42.2	597
298.15 K	0.075	1190.07	42	462.8
303.15 K	0.105	1186.89	41.7	358.7
308.15 K	0.145	1183.89	41.5	281.1
313.15 K	0.197	1180.69	41.2	224.2
318.15 K	0.257	1177.69	40.9	176
323.15 K	0.324	1174.61	40.7	140.1
328.15 K	0.399	1171.29	40.4	113
333.15 K	0.485	1168.33	40.1	90
338.15 K	0.573	1165.21	39.9	73.77
343.15 K	0.675	1162.18	39.6	57.54

CCCCn1cc[n+](C)c1.O=P([O-])(O)O [1-butyl-3-methylimidazolium dihydrogen phosphate]
Conditions	electrical conductivity [S/m]	mass density [kg/m3]	surface tension liquid-gas [mN/m]	viscosity [mPa·s]
288.15 K	0.303	1183.24	44.2	198.7
293.15 K	0.359	1179.91	43.9	159
298.15 K	0.419	1176.54	43.6	125.6
303.15 K	0.483	1173.18	43.2	101.1
308.15 K	0.555	1169.69	42.9	80.78
313.15 K	0.628	1166.3	42.6	65.21
318.15 K	0.707	1162.8	42.3	53.62
323.15 K	0.788	1159.53	42	43.67
328.15 K	0.868	1156.13	41.7	36.75
333.15 K	0.965	1152.67	41.4	29.77
338.15 K	1.06	1149.36	41.1	25.21
343.15 K	1.16	1146.03	40.8	20.96

CCCCC[n+]1ccn(C)c1.O=P([O-])(O)O [1-methyl-3-pentylimidazolium dihydrogen phosphate]
Conditions	electrical conductivity [S/m]	mass density [kg/m3]	surface tension liquid-gas [mN/m]	viscosity [mPa·s]
288.15 K	0.164	1148.62	41.8	327.8
293.15 K	0.201	1145.42	41.5	259.1
298.15 K	0.243	1142.29	41.2	205
303.15 K	0.29	1139.09	40.9	162.6
308.15 K	0.341	1135.81	40.6	130
313.15 K	0.398	1132.55	40.3	103.3
318.15 K	0.457	1129.43	40	84.04
323.15 K	0.523	1126.27	39.7	68.45
328.15 K	0.588	1122.94	39.3	56.55
333.15 K	0.665	1119.93	39	46.91
338.15 K	0.744	1116.63	38.7	38.55
343.15 K	0.825	1113.49	38.4	31.43

CCC[n+]1ccn(C)c1.O=P([O-])(O)O [1-methyl-3-propylimidazolium dihydrogen phosphate]
Conditions	electrical conductivity [S/m]	mass density [kg/m3]	surface tension liquid-gas [mN/m]	viscosity [mPa·s]
288.15 K	0.469	1202.41	46.4	99.38
293.15 K	0.536	1198.96	46.1	78.41
298.15 K	0.613	1195.45	45.8	61.92
303.15 K	0.693	1191.95	45.5	49.58
308.15 K	0.785	1188.45	45.2	39.3
313.15 K	0.879	1184.95	44.9	32.16
318.15 K	0.977	1181.43	44.6	25.81
323.15 K	1.08	1177.89	44.3	21.02
328.15 K	1.19	1174.36	44	17.17
333.15 K	1.3	1170.8	43.7	13.85
338.15 K	1.41	1167.24	43.4	11.43
343.15 K	1.55	1163.66	43.1	10.04

CCCn1cc[n+](C)c1C.O=S(=O)([O-])O [2,3-dimethyl-1-propylimidazolium hydrogen sulfate]
Conditions	electrical conductivity [S/m]	mass density [kg/m3]	surface tension liquid-gas [mN/m]	viscosity [mPa·s]
288.15 K	–	1239.79	47.7	500.4
293.15 K	–	1236.23	47.4	362.3
298.15 K	0.123	1232.82	47.2	263.7
303.15 K	0.162	1229.24	46.9	194.2
308.15 K	0.211	1225.73	46.6	142.2
313.15 K	0.267	1222.13	46.3	107
318.15 K	0.333	1218.82	46.1	81.27
323.15 K	0.409	1215.29	45.8	62.04
328.15 K	0.496	1211.74	45.5	47.83
333.15 K	0.6	1208.35	45.2	35.71
338.15 K	0.711	1204.81	44.9	27.47
343.15 K	0.832	1201.46	44.7	21.17

CCCCn1cc[n+](C)c1C.O=S(=O)([O-])O [1-butyl-2,3-dimethylimidazolium hydrogen sulfate]
Conditions	electrical conductivity [S/m]	mass density [kg/m3]	surface tension liquid-gas [mN/m]	viscosity [mPa·s]
288.15 K	–	1217.09	45.3	628.5
293.15 K	–	1213.74	45	469.7
298.15 K	0.1	1210.61	44.8	355.2
303.15 K	0.135	1207.35	44.5	271.3
308.15 K	0.179	1203.89	44.2	206.3
313.15 K	0.231	1200.63	43.9	157.2
318.15 K	0.292	1197.49	43.7	121.8
323.15 K	0.36	1194.03	43.4	95.86
328.15 K	0.441	1190.8	43.1	74.49
333.15 K	0.531	1187.57	42.8	60.7
338.15 K	0.631	1184.29	42.6	46.52
343.15 K	0.739	1180.99	42.3	38.13

CCCCCn1cc[n+](C)c1.O=C([O-])O [3-methyl-1-pentylimidazolium hydrogen carbonate]
Conditions	electrical conductivity [S/m]	mass density [kg/m3]	surface tension liquid-gas [mN/m]	viscosity [mPa·s]
288.15 K	0.143	1148.91	31.9	179.6
293.15 K	0.193	1145.21	31.4	138.9
298.15 K	0.248	1141.79	30.9	108.6
303.15 K	0.305	1138.28	30.4	85.09
308.15 K	0.367	1134.77	29.9	66.77
313.15 K	0.428	1131.33	29.4	53.12
318.15 K	0.489	1127.75	29	42.53
323.15 K	0.553	1124.28	28.5	33.29
328.15 K	0.612	1120.73	28	26.92
333.15 K	0.671	1117.27	27.5	21.42
338.15 K	0.733	1113.75	26.9	17.65
343.15 K	0.794	1110.3	26.5	14.71
